Data taken from article PMC9127750, “Structure-based design of CDC42 effector interaction inhibitors for the treatment of cancer” (Cell reports, 2022).

Test system: WM3248 melanoma cells, 486 antibodies
Experiment: Reverse phase protein arrays (RPPA);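 for RPPA ACC1.R.C: ratio of treated to vehicle (0 µM) normalized linear protein signal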;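 for RPPA AMPK.a2 pS345.R.V: ratio of treated to vehicle (0 µM) normalized linear protein signal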;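 for RPPA AMPKa pT172.R.C: ratio of treated to vehicle (0 µM) normalized linear protein signal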;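 for RPPA ASNS.R.V: ratio of treated to vehicle (0 µM) normalized linear protein signal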;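 for RPPA AceCS1.R.V: ratio of treated to vehicle (0 µM) normalized linear protein signal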;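 for RPPA Akt1.R.V: ratio of treated to vehicle (0 µM) normalized linear protein signal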;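 for RPPA Atg5.R.C: ratio of treated to vehicle (0 µM) normalized linear protein signal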;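 for RPPA Bim.R.V: ratio of treated to vehicle (0 µM) normalized linear protein signal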
Type: cell-based, Human
Conditions: 20 uM
Description: Pellets were snap frozen in liquid nitrogen and shipped to MD Anderson Cancer Center core RPPA facility for RPPA analysis (Table S5). Three biological replicates for each sample were generated.
Nomenclatures on the RPPA heatmaps: name_of_antibody.species_of_antibody.status_of_antibody. V - antibody validated; C - validation of antibody in progress; Q - antibody nonspecific; E – under evaluation; antibodies raised in M - mouse, G - goat, R - rabbit, or T - rat.

CN(C)c1cccc(Nc2cc(-c3ccccc3)nc(C3CCNCC3)n2)c1 [ARN22089, N1,N1-dimethyl-N3-(6-phenyl-2-(piperidin-4-yl)pyrimidin-4-yl)benzene-1,3-diamine]
RPPA p38.a.M.V Average: 0.905
RPPA p44.42.MAPK.R.V Average: 1.030
RPPA p53.R.C Average: 1.157
RPPA p70.S6K1.R.V Average: 1.027
RPPA p70.S6K_pT389.R.V Average: 0.996
RPPA p90RSK_pT573.R.C Average: 1.014
RPPA A.Raf.R.V (20W1): 1.011
RPPA ACC1.R.C (20W1): 0.890
RPPA ACLY_pS455.R.V (20W1): 1.224
RPPA ACSL1.R.V (20W1): 0.955
RPPA ACVRL1.R.C (20W1): 0.972
RPPA ADAR1.M.V (20W1): 1.307
RPPA ALKBH5.R.V (20W1): 0.885
RPPA AMPK.a2_pS345.R.V (20W1): 1.081
RPPA AMPKa.R.C (20W1): 1.032
RPPA AMPKa_pT172.R.C (20W1): 3.755
RPPA AR.R.V (20W1): 0.874
RPPA ARID1A.R.C (20W1): 1.514
RPPA ASNS.R.V (20W1): 0.742
RPPA ATM.R.V (20W1): 1.024
RPPA ATM_pS1981.R.V (20W1): 1.111
RPPA ATP5A.M.C (20W1): 1.018
RPPA ATP5H.R.V (20W1): 1.117
RPPA ATR.R.V (20W1): 1.005
RPPA ATRX.R.C (20W1): 1.357
RPPA ATR_pS428.R.C (20W1): 1.054
RPPA AceCS1.R.V (20W1): 0.907
RPPA Akt1.R.V (20W1): 0.811
RPPA Akt1_pS473.R.V (20W1): 1.162
RPPA Akt2.R.V (20W1): 0.873
RPPA Akt.R.V (20W1): 0.913
RPPA Akt_pS473.R.V (20W1): 0.795
RPPA Akt_pT308.R.V (20W1): 0.845
RPPA Ambra1_pS52.R.C (20W1): 1.101
RPPA Annexin.I.M.V (20W1): 0.972
RPPA Atg3.R.V (20W1): 0.914
RPPA Atg4B.R.C (20W1): 0.881
RPPA Atg5.R.C (20W1): 0.779
RPPA Atg7.R.V (20W1): 0.813
RPPA Aurora.A.R.C (20W1): 0.656
RPPA Aurora.ABC_pT288_pT232_pT198.R.C (20W1): 0.959
RPPA Aurora.B.R.V (20W1): 1.341
RPPA Axl.R.V (20W1): 0.908
RPPA B7.H3.R.C (20W1): 0.771
RPPA B7.H4.R.C (20W1): 1.034
RPPA B.Raf.R.C (20W1): 0.907
RPPA B.Raf_pS445.R.V (20W1): 0.934
RPPA BAP1.M.V (20W1): 0.877
RPPA BCL2A1.R.V (20W1): 0.987
RPPA BMK1.Erk5_pT218_Y220.R.V (20W1): 0.909
RPPA BRCA1.M.C (20W1): 1.231
RPPA BRD4.R.V (20W1): 1.228
RPPA Bad_pS112.R.V (20W1): 1.119
RPPA Bak.R.C (20W1): 1.000
RPPA Bax.R.V (20W1): 0.927
RPPA Bcl2.R.C (20W1): 1.064
RPPA Bcl.xL.R.V (20W1): 1.008
RPPA Beclin.R.C (20W1): 0.873
RPPA BiP.GRP78.M.C (20W1): 0.914
RPPA Bid.R.C (20W1): 0.954
RPPA Bim.R.V (20W1): 1.054
RPPA X4E.BP1.R.V (20W1): 1.323
RPPA X4E.BP1_pS65.R.V (20W1): 0.718
RPPA X4E.BP1_pT37_T46.R.V (20W1): 0.651
RPPA X14.3.3.zeta.R.V (20W1): 0.801
RPPA X14.3.3βR.V (20W1): 1.140
RPPA X14.3.3εM.C (20W1): 0.864
RPPA b.Actin.R.C (20W1): 1.078
RPPA b.Catenin.R.V (20W1): 0.844
RPPA b.Catenin_pT41_S45.R.V (20W1): 1.120
RPPA c.Abl.R.V (20W1): 1.161
RPPA c.IAP2.R.C (20W1): 1.080
RPPA A.Raf.R.V (20W3): 0.992
RPPA A.Raf_pS299.R.C (20W3): 0.987
RPPA ACC1.R.C (20W3): 0.779
RPPA ACC_pS79.R.V (20W3): 0.983
RPPA ACLY_pS455.R.V (20W3): 0.970
RPPA ACSL1.R.V (20W3): 0.853
RPPA ACVRL1.R.C (20W3): 0.984
RPPA ALKBH5.R.V (20W3): 0.991
RPPA AMPK.a2_pS345.R.V (20W3): 1.134
RPPA AMPKa.R.C (20W3): 1.122
RPPA AMPKa_pT172.R.C (20W3): 2.117
RPPA AR.R.V (20W3): 1.261
RPPA ARID1A.R.C (20W3): 1.115
RPPA ASNS.R.V (20W3): 1.296
RPPA ATM.R.V (20W3): 0.991
RPPA ATM_pS1981.R.V (20W3): 0.989
RPPA ATP5A.M.C (20W3): 0.955
RPPA ATP5H.R.V (20W3): 0.967
RPPA ATR.R.V (20W3): 0.989
RPPA ATR_pS428.R.C (20W3): 1.254
RPPA AceCS1.R.V (20W3): 0.994
RPPA Akt1.R.V (20W3): 1.129
RPPA Akt1_pS473.R.V (20W3): 1.135
RPPA Akt2.R.V (20W3): 1.035
RPPA Akt2_pS474.R.C (20W3): 1.166
RPPA Akt.R.V (20W3): 0.976
RPPA Akt_pS473.R.V (20W3): 1.265
RPPA Ambra1_pS52.R.C (20W3): 0.996
RPPA Annexin.I.M.V (20W3): 0.990
RPPA Annexin.VII.M.V (20W3): 0.885
RPPA Atg3.R.V (20W3): 1.076
RPPA Atg4B.R.C (20W3): 1.076
RPPA Atg5.R.C (20W3): 0.960
RPPA Aurora.A.R.C (20W3): 0.983
RPPA Aurora.ABC_pT288_pT232_pT198.R.C (20W3): 1.060
RPPA Axl.R.V (20W3): 1.478
RPPA B7.H3.R.C (20W3): 1.058
RPPA B7.H4.R.C (20W3): 1.107
RPPA B.Raf_pS445.R.V (20W3): 1.167
RPPA BAP1.M.V (20W3): 0.964
RPPA BMK1.Erk5_pT218_Y220.R.V (20W3): 0.926
RPPA BRCA1.M.C (20W3): 0.977
RPPA BRD4.R.V (20W3): 1.002
RPPA Bad_pS112.R.V (20W3): 1.163
RPPA Bax.R.V (20W3): 1.054
RPPA Bcl2.R.C (20W3): 0.975
RPPA Bcl.xL.R.V (20W3): 1.190
RPPA Beclin.R.C (20W3): 0.948
RPPA BiP.GRP78.M.C (20W3): 1.003
RPPA Bid.R.C (20W3): 0.943
RPPA Bim.R.V (20W3): 0.917
RPPA X4E.BP1.R.V (20W3): 1.550
RPPA X4E.BP1_pS65.R.V (20W3): 1.024
RPPA X4E.BP1_pT37_T46.R.V (20W3): 1.034
RPPA X14.3.3βR.V (20W3): 0.902
RPPA X14.3.3εM.C (20W3): 0.973
RPPA b.Actin.R.C (20W3): 0.977
RPPA b.Catenin.R.V (20W3): 1.021
RPPA b.Catenin_pT41_S45.R.V (20W3): 1.082
RPPA c.Abl.R.V (20W3): 1.234
RPPA c.Abl_pY412.R.C (20W3): 1.114
C.Raf.R.C RPPA level (Average): 1.061
CA9.R.C RPPA level (Average): 0.925
CD2.M.C RPPA level (Average): 0.936
CD4.R.V RPPA level (Average): 1.006
CD5.M.C RPPA level (Average): 0.966
CD20.R.C RPPA level (Average): 1.099
CD31.M.V RPPA level (Average): 0.988
CD38.R.C RPPA level (Average): 1.131
CD44.R.C RPPA level (Average): 0.982
CD45.M.V RPPA level (Average): 0.957
CD49b.M.V RPPA level (Average): 0.989
CD68.M.C RPPA level (Average): 0.999
CD74.M.V RPPA level (Average): 0.998
CD134.R.V RPPA level (Average): 0.994
CD171.M.V RPPA level (Average): 0.762
CDK1_pT14.R.C RPPA level (Average): 1.056
CDK9.R.V RPPA level (Average): 0.964
CDKN2A.R.C RPPA level (Average): 1.024
CDT1.R.V RPPA level (Average): 0.971
CENP.A.R.V RPPA level (Average): 1.548
CHD1L.R.V RPPA level (Average): 0.954
CIITA.R.C RPPA level (Average): 1.002
COG3.R.V RPPA level (Average): 1.098
CRABP1.R.C RPPA level (Average): 1.025
CRABP2.R.V RPPA level (Average): 0.977
CREB_pS133.R.C RPPA level (Average): 1.270
CSK.R.C RPPA level (Average): 0.987
Calnexin.R.V RPPA level (Average): 0.956
Caspase.7.cleaved..R.C RPPA level (Average): 0.982
Caspase.8.M.Q RPPA level (Average): 0.929
